Assays:
[1] = molecular target: T1, human toll like receptor 8 (hTLR8) (Homo sapiens, UniProt Q9NR97); assay: hTLR8 in-vitro functional assay (HEK-Blue hTLR8 SEAP reporter); format: cell-based; details: HEK-Blue hTLR8 cells, overnight incubation
T1 construct: host or cells: HEK293 (HEK-Blue hTLR8)
T1 sequence (Q9NR97 27-1041): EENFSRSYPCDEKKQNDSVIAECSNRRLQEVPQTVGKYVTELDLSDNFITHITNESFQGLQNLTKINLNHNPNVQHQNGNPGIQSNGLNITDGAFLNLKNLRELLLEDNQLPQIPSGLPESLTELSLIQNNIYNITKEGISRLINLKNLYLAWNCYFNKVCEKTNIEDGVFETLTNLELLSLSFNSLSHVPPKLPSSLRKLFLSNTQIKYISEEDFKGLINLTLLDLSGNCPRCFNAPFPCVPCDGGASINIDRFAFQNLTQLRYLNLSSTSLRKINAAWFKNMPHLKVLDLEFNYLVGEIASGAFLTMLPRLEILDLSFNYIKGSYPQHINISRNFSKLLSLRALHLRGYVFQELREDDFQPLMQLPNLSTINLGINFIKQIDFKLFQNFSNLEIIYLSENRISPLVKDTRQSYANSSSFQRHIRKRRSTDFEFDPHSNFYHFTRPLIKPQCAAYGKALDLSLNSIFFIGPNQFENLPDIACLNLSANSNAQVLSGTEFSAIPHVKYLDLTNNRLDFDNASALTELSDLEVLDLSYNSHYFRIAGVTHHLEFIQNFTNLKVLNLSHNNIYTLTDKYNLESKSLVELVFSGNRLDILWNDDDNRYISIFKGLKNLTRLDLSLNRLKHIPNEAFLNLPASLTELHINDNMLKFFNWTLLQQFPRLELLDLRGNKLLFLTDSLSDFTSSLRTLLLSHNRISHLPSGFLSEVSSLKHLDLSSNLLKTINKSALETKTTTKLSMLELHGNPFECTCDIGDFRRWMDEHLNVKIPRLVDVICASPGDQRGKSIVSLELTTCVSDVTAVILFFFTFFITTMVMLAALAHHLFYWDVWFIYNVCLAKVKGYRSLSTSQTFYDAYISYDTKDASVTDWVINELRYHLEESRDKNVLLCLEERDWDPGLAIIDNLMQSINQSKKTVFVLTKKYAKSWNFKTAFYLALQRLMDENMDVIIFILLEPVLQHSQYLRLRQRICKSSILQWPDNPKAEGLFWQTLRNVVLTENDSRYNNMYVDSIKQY
Description: (§1) To determine the ability of test compounds to activate the human toll like receptor 7 (hTLR7) or human toll like receptor 8 (hTLR8), cell-based reporter systems were utilized. HEK293 cells stably overexpressing either hTLR7 or hTLR8 along with a reporter gene containing an optimized secreted embryonic alkaline phosphatase gene (SEAP), under the control of the IFN-b minimal promoter fused to five NF-kB and AP-1-binding sites, were obtained from Invivogen (HEK-Blue™ hTLR7, cat #Hkb-htlr7; HEK-Blue™ hTLR8, cat #Hkb-htlr8). Stimulation of hTLR7 or hTLR8 in these cells activates NF-kB and AP-1 and induces the production of SEAP which can be quantified using an alkaline phosphatase detection reagent.
(§2) On day one of the assay, compounds were prepared using 11-point half-log serial dilutions from a 10 mM DMSO stock solution and 50 nL was spotted into 384-well plates (PerkinElmer, cat #6007480). Positive and negative controls were also spotted within the assay plate and were used to determine percent effect during the analysis process. After resuspension in DMEM assay media containing FBS heat inactivated (10%), Glutamax (2 mM) and Penicillin/Streptomycin, 10,000 cells/20 ul/well were added to previously prepared compound plates. Plates were incubated overnight (16-20 hrs) at 37° C. in a 5% CO2 environment. Prewetted Microclime lids (Labcyte, LLS-0310) were used to prevent evaporation. On day two of the assay, QUANTI-Blue™ detection reagent was prepared by reconstituting QUANTI-Blue™ powder (InvivoGen, Rep-qb1) with 100 ml of sterile water and allowed to equilibrate to 37° C. for 15 minutes. 20 ul of QUANTI-Blue™ detection reagent was added to each well and plates were incubated at room temperature for 180 min. At the end of the incubation, plates were read on an Envision (Perkin Elmer) plate reader capturing absorbance at 650 nm.
(§3) Using Positive (tool compound) and Negative (DMSO) controls, the percent (%) effect was calculated for each sample using the following equation: […]
(§4) The % effect at each concentration of compound was calculated utilizing the ABase software suite (IBDS) and was relative to the amount of SEAP produced in the positive and negative control wells contained within each assay plate. The concentrations and % effect values for test compounds were fit using a 4-parameter logistic model in ABase and the concentration of compound that produced 50% response (EC50) was calculated.

[2] = molecular target: T2, human toll like receptor 7 (hTLR7) (Homo sapiens, UniProt Q9NYK1); assay: hTLR7 in-vitro functional assay (HEK-Blue hTLR7 SEAP reporter); format: cell-based; details: HEK-Blue hTLR7 cells, overnight incubation
T2 construct: host or cells: HEK293 (HEK-Blue hTLR7)
T2 sequence (Q9NYK1 27-1049): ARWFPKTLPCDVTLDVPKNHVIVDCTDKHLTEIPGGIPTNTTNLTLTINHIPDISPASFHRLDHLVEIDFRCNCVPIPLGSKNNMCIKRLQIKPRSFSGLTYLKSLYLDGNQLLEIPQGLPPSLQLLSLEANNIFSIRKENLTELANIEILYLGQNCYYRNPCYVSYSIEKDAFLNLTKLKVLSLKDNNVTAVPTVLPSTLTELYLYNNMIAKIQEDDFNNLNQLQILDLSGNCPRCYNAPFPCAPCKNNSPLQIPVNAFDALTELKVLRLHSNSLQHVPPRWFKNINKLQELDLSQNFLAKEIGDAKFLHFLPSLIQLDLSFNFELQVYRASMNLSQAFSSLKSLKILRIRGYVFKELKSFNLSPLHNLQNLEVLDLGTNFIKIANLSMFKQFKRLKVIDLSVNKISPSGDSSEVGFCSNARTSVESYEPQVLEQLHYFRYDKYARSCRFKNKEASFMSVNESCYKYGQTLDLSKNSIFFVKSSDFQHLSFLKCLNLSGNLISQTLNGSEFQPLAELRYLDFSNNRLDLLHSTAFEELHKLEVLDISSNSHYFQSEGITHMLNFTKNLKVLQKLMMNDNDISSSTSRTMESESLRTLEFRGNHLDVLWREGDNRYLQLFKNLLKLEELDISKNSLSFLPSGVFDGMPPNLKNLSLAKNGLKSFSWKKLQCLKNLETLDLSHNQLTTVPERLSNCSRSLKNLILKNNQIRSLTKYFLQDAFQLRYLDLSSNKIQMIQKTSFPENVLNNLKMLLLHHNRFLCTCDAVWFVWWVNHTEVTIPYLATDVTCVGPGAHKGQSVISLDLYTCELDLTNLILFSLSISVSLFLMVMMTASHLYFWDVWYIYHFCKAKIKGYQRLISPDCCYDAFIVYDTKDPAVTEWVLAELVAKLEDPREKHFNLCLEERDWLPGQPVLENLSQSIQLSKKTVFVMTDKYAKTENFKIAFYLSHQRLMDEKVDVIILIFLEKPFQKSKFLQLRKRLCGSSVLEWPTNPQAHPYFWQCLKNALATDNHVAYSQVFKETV
Description: as §1, §2, §3, §4

CCOCc1nc2c(N)nc3cc(CCCN4CCN(C(=O)CCOCCOCCOCCOCCOCCOCCOCCOCCOCCOCCOCCOCCOCCOCCOCCOCCOCCOCCOCCOCCOCCOCCOCCOCCOCCOCCOCCOCCOCCOCCOCCOCCOCCOCCOCCOCCNC(=O)CCOCCOCCOCCOCCNC(=O)O[C@H]5CC[C@@]6(C)C(=CC[C@H]7[C@@H]8CC[C@H]([C@H](C)CCCC(C)C)[C@@]8(C)CC[C@@H]76)C5)CC4)ccc3c2n1CC(C)(CO)CO [Compound 4, (3beta)-cholest-5-en-3-yl {127-[4-(3-{4-amino-2-(ethoxymethyl)-1-[3-hydroxy-2-(hydroxymethyl)-2-methylpropyl]-1H-imidazo[4,5-c]quinolin-7-yl}propyl)piperazin-1-yl]-15,127-dioxo-3,6,9,12,19,22,25,28,31,34,37,40,43,46,49,52,55,58,61,64,67,70,73,76,79,82,85,88,91,94,97,100,103,106,109,112,115,118,121,124-tetracontaoxa-16-azaheptacosahect-1-yl}carbamate] showed an EC50 [1] of 1750 nM and an EC50 [2] of 60 nM.

For CCCCc1nc2c(N)nc3cc(CCCN4CCN(C(=O)CCOCCOCCOCCOCCOCCOCCOCCOCCNC(=O)O[C@H]5CC[C@@]6(C)C(=CC[C@H]7[C@@H]8CC[C@H]([C@H](C)CCCC(C)C)[C@@]8(C)CC[C@@H]76)C5)CC4)ccc3c2n1CC(C)(CO)CO [Compound 19, (20R)-cholest-5-en-3beta-yl {27-[4-(3-{4-amino-2-butyl-1-[3-hydroxy-2-(hydroxymethyl)-2-methylpropyl]-1H-imidazo[4,5-c]quinolin-7-yl}propyl)piperazin-1-yl]-27-oxo-3,6,9,12,15,18,21,24-octaoxaheptacosan-1-yl}carbamate], the EC50 [1] was 20200 nM and the EC50 [2] was 362 nM.

With CCCCc1nc2c(N)nc3cc(CCCN4CCN(CCCOCCOCCNC(=O)O[C@H]5CC[C@@]6(C)C(=CC[C@H]7[C@@H]8CC[C@H]([C@H](C)CCCC(C)C)[C@@]8(C)CC[C@@H]76)C5)CC4)ccc3c2n1CC(C)(CO)CO [Compound 18, (20R)-cholest-5-en-3beta-yl [2-(2-{3-[4-(3-{4-amino-2-butyl-1-[3-hydroxy-2-(hydroxymethyl)-2-methylpropyl]-1H-imidazo[4,5-c]quinolin-7-yl}propyl)piperazin-1-yl]propoxy}ethoxy)ethyl]carbamate] the EC50 [1] was 9900 nM and the EC50 [2] was 288 nM.

With CCOCc1nc2c(N)nc3cc(CCCN4CCN(C(=O)CCOCCOCCOCCOCCOCCOCCOCCOCCOCCOCCOCCOCCOCCOCCOCCOCCOCCOCCOCCOCCOCCOCCOCCOCCNC(=O)CCOCCOCCOCCOCCNC(=O)O[C@H]5CC[C@@]6(C)C(=CC[C@H]7[C@@H]8CC[C@H]([C@H](C)CCCC(C)C)[C@@]8(C)CC[C@@H]76)C5)CC4)ccc3c2n1CC(C)(CO)CO [Compound 5, (3beta)-cholest-5-en-3-yl {91-[4-(3-{4-amino-2-(ethoxymethyl)-1-[3-hydroxy-2-(hydroxymethyl)-2-methylpropyl]-1H-imidazo[4,5-c]quinolin-7-yl}propyl)piperazin-1-yl]-15,91-dioxo-3,6,9,12,19,22,25,28,31,34,37,40,43,46,49,52,55,58,61,64,67,70,73,76,79,82,85,88-octacosaoxa-16-azahennonacont-1-yl}carbamate] the EC50 [1] was 2300 nM and the EC50 [2] was 72 nM.

With CCCCc1nc2c(N)nc3cc(CCCN4CCN(CCCOCCOCCOCCOCCNC(=O)CCOCCOCCOCCOCCNC(=O)O[C@H]5CC[C@@]6(C)C(=CC[C@H]7[C@@H]8CC[C@H]([C@H](C)CCCC(C)C)[C@@]8(C)CC[C@@H]76)C5)CC4)ccc3c2n1CC(C)(CO)CO [Compound 15, (20R)-cholest-5-en-3beta-yl {31-[4-(3-{4-amino-2-butyl-1-[3-hydroxy-2-(hydroxymethyl)-2-methylpropyl]-1H-imidazo[4,5-c]quinolin-7-yl}propyl)piperazin-1-yl]-15-oxo-3,6,9,12,19,22,25,28-octaoxa-16-azahentriacontan-1-yl}carbamate] the EC50 [1] was 17600 nM and the EC50 [2] was 276 nM.

CCCCc1nc2c(N)nc3cc(CCCN4CCN(C(=O)CCOCCOCCOCCOCCOCCOCCOCCOCCOCCOCCOCCOCCNC(=O)O[C@H]5CC[C@@]6(C)C(=CC[C@H]7[C@@H]8CC[C@H]([C@H](C)CCCC(C)C)[C@@]8(C)CC[C@@H]76)C5)CC4)ccc3c2n1CC(C)(CO)CO [Compound 20, (20R)-cholest-5-en-3beta-yl {39-[4-(3-{4-amino-2-butyl-1-[3-hydroxy-2-(hydroxymethyl)-2-methylpropyl]-1H-imidazo[4,5-c]quinolin-7-yl}propyl)piperazin-1-yl]-39-oxo-3,6,9,12,15,18,21,24,27,30,33,36-dodecaoxanonatriacontan-1-yl}carbamate] gave an EC50 [1] of 21800 nM and an EC50 [2] of 443 nM.

CCCCc1nc2c(N)nc3cc(CCCN4CCN(C(=O)OCc5ccc(NC(=O)[C@H](CCCNC(N)=O)NC(=O)[C@@H](NC(=O)COCCOCCNC(=O)O[C@H]6CC[C@@]7(C)C(=CC[C@H]8[C@@H]9CC[C@H]([C@H](C)CCCC(C)C)[C@@]9(C)CC[C@@H]87)C6)C(C)C)cc5)CC4)ccc3c2n1CC(C)(CO)CO [Compound 28, 4-((12S,15S)-1-(((3beta)-cholest-5-en-3-yl)oxy)-12-isopropyl-1,10,13-trioxo-15-(3-ureidopropyl)-5,8-dioxa-2,11,14-triazahexadecan-16-amido)benzyl 4-(3-(4-amino-2-butyl-1-(3-hydroxy-2-(hydroxymethyl)-2-methylpropyl)-1H-imidazo[4,5-c]quinolin-7-yl)propyl)piperazine-1-carboxylate] showed an EC50 [1] of 4480 nM and an EC50 [2] of 1890 nM.

Reference: patent US20250135006A1, “AMPHIPHILIC TLR7/8 ADJUVANTS AND USES THEREOF” (Pfizer Inc., priority 2023, published 2025)
